The experiment has as its system OVCAR-3. Description: OVCAR3 CTG assay. Format: cell-based. As to conditions: Homo sapiens, OVCAR-3, 144 h; CellTiter-Glo, 6 days incubation. The text has this: Example B2: OVCAR3 CTG Assay
• a) Preparation of complete medium: Added FBS and appropriate additives according to the information sheet provided by the vendor. Mix gently. • b) Checked the cell name and complete medium and passage number marked on the flask. For adherent cell lines, refer to c to k. For suspension cell lines, refer to g to k. • c) Removed and discarded culture medium using a vacuum pump. • d) Briefly rinsed the cell layer with 0.25% (w/v) Trypsin-0.038% (w/v) EDTA solution to remove all traces of serum that contains trypsin inhibitor. • e) Added 3.0 ml of Trypsin-EDTA solution to flask and observed cells under an inverted microscope until cell layer is dispersed. • f) Added 9.0 ml of complete growth medium and aspirated cells by gently pipetting. • g) Transfered the cell suspension to a centrifuge tube and centrifuged at 1000 rpm for 4 minutes. • h) Discarded the supernatant using a vacuum pump. • i) Added appropriate volume of complete medium. Suspended the cell pellet by gently pipetting. • j) Counted the cell numbers with Vi-cell XR and adjusted cells to appropriate density. • k) Added 190 μL of cell suspension to 96-well opaque-walled clear bottom plates according to the planned plate layout and placed the plates in the CO2 incubator overnight.
2) Compound Stock Preparation:
• a) Plate preparation of testing articles:
The compounds were dissolved in DMSO to prepare 10 mM stock solution. The start working concentration (2 mM) was prepared with DMSO.
b) Staurosporine Plate Preparation:
0.4 mM Staurosporine was prepared in DMSO at working concentration.
The 20× compound containing medium was prepared according to the plate map. 10 μL of 20× compound containing medium was added into each well of the assay plates. Centrifuged at 1000 rpm for 1 minute. The total dilution was 200-fold.
3) Cells were Incubated with the Compounds for 6 Days at 5% CO2, 37° C.
Assay Measurement for CTG Assay
1) Preparation of Reagents
• a) Thawed the CellTiter-Glo buffer and equilibrated to room temperature prior to use. • b) Equilibrated the lyophilized CellTiter-Glo substrate to room temperature prior to use. • c) Transfered the appropriate volume of CellTiter-Glo buffer into the amber bottle containing CellTiter-Glo substrate to reconstitute the lyophilized enzyme/substrate mixture. This formed the CellTiter-Glo reagent. • d) Mixed by gently vortexing, swirling or by inverting the contents to obtain a homogeneous solution. The CellTiter-Glo substrate went into solution easily in less than one minute.
• a) Observed the cell morphology under an inverted microscope after corresponding treatment. • b) Equilibrated the plate and its contents to room temperature for approximately 30 minutes. • c) Added 100 μL of CellTiter-Glo reagent to the assay plate by Multidrop Combi instrument. • d) Mixed contents for 10 minutes on an orbital shaker to induce cell lysis. • e) Allowed the plate to incubate at room temperature for 10 minutes to stabilize luminescent signal. • f) Pasted the clear bottom with white back seal and record luminescence with Envision. The settings should be: Luminescence, measurement time 0.1 s.
For orientation: In ATP-based viability assays light output follows the ATP content of the culture.
What is called IC50 is the concentration needed to halve the response being measured. High values mean weaker potency, low ones greater potency. Turning to `CN1CCCOCC2(C(F)(F)F)CCN(CC2)c2cc(NS(=O)(=O)CCO)ccc2C(=O)Nc2cccc1n2` [EX62], the 50% inhibitory concentration (IC50) lay in the range of 10 to 100 nM. The result for `[2H]C([2H])([2H])N1CCCCC2(C(F)(F)F)CCN(CC2)c2cc(NS(=O)(=O)CCO)ccc2C(=O)Nc2cccc1n2` [EX63] reads 100 to 1000 nM; that for `O=C1Nc2ccc(=O)n(n2)CCCCCCC2(C(F)(F)F)CCN(CC2)c2cc(NS(=O)(=O)CCO)ccc21` [EX64], 10 to 100 nM; that for `O=C1Nc2ccc(=O)n(n2)CCCCCC2(C(F)(F)F)CCN(CC2)c2cc(NS(=O)(=O)CCO)ccc21` [EX65], 100 to 1000 nM. In the case of `O=C1Nc2cccc(n2)NC/C=C\COCC2(C(F)(F)F)CCN(CC2)c2cc(NS(=O)(=O)CCO)ccc21` [EX66] it was 10 to 100 nM. In the case of `O=C1Nc2cccc(n2)NCC2(CC2)COCC2(C(F)(F)F)CCN(CC2)c2cc(NS(=O)(=O)CCO)ccc21` [EX68] it was 10 to 100 nM; in that of `[2H]C([2H])([2H])N1CCCOCC2(C(F)(F)F)CCN(CC2)c2cc(S(=O)(=O)NC(C)(C)C)ccc2C(=O)Nc2cccc1n2` [EX69], 10 to 100 nM. In turn, `[2H]C([2H])([2H])N1CCCOCC2(C(F)(F)F)CCN(CC2)c2cc(S(=O)(=O)NCCO)ccc2C(=O)Nc2cccc1n2` [EX70] yielded a half-inhibitory concentration (IC50) of 10 to 100 nM. The result for `O=C1Nc2cccc(n2)N(C2CC2)CCCOCC2(C(F)(F)F)CCN(CC2)c2cc(NS(=O)(=O)CCO)ccc21` [EX71] reads 10 to 100 nM. Regarding `CN1CCCOCC2(C(F)(F)F)CCN(CC2)c2cc(NS(=O)(=O)CCO)ccc2C(=O)Nc2cncc1n2` [EX75], the IC50 is 100 to 1000 nM.

Consider `C[C@H]1CNc2nc(ccc2F)NC(=O)c2ccc(NS(=O)(=O)CCO)cc2N2CCC(C(F)(F)F)(CC2)COC1` [EX76-A], for which the concentration for half-maximal inhibition (IC50) is < 10 nM.

Take `C[C@@H]1CNc2nc(ccc2F)NC(=O)c2ccc(NS(=O)(=O)CCO)cc2N2CCC(C(F)(F)F)(CC2)COC1` [EX76-B]: the concentration for half-maximal inhibition (IC50) lay in the range of 10 to 100 nM. `C/C1=C/CNc2cccc(n2)NC(=O)c2ccc(NS(=O)(=O)CCO)cc2N2CCC(C(F)(F)F)(CC2)COC1` [EX77] gave an IC50 of 100 to 1000 nM. In the case of `CO[C@@H]1CNc2cccc(n2)NC(=O)c2ccc(NS(=O)(=O)CCO)cc2N2CCC(C(F)(F)F)(CC2)COC1` [EX78-A] it was 10 to 100 nM. The result for `CO[C@H]1CNc2cccc(n2)NC(=O)c2ccc(NS(=O)(=O)CCO)cc2N2CCC(C(F)(F)F)(CC2)COC1` [EX78-B] reads < 10 nM; that for `C[C@@H]1CCCC2(C(F)(F)F)CCN(CC2)c2cc(NS(=O)(=O)CCO)ccc2C(=O)Nc2cccc(n2)NC1` [EX79-A], 10 to 100 nM. The result for `C[C@H]1CCCC2(C(F)(F)F)CCN(CC2)c2cc(NS(=O)(=O)CCO)ccc2C(=O)Nc2cccc(n2)NC1` [EX79-B] reads < 10 nM; that for `CN1CCC2(C(F)(F)F)CCN(CC2)c2cc(NS(=O)(=O)CCO)ccc2C(=O)Nc2cccc(n2)NCC1=O` [EX80], 1000 to 10000 nM; that for `O=C1Nc2cccc(n2)N2CCO[C@H](COCC3(C(F)(F)F)CCN(CC3)c3cc(NS(=O)(=O)CCO)ccc31)C2` [EX81-B], 10 to 100 nM.

`O=C1Nc2cccc(n2)NCCC/C=C/C2(C(F)(F)F)CCN(CC2)c2cc(NS(=O)(=O)CCO)ccc21` [EX83] registered a half-inhibitory concentration (IC50) of 10 to 100 nM. In the case of `C[C@H]1COCC2(C(F)(F)F)CCN(CC2)c2cc(NS(=O)(=O)CCO)ccc2C(=O)Nc2cccc(n2)CO1` [EX84-A] it was 10 to 100 nM; in that of `C[C@@H]1COCC2(C(F)(F)F)CCN(CC2)c2cc(NS(=O)(=O)CCO)ccc2C(=O)Nc2cccc(n2)CO1` [EX84-B], 10 to 100 nM; in that of `C[C@@H]1C/C=C/C2(C(F)(F)F)CCN(CC2)c2cc(NS(=O)(=O)CCO)ccc2C(=O)Nc2cccc(n2)NC1` [EX85-A], 10 to 100 nM. For the molecule `C[C@H]1C/C=C/C2(C(F)(F)F)CCN(CC2)c2cc(NS(=O)(=O)CCO)ccc2C(=O)Nc2cccc(n2)NC1` [EX85-B], the 50% inhibitory concentration (IC50) is < 10 nM. For `CN1CCCOCC2(C(F)(F)F)CCN(CC2)c2cc(NS(=O)(=O)CCO)cnc2C(=O)Nc2cccc1n2` [EX86], the IC50 fell in the range of 10 to 100 nM. In the case of `CN1CCCOCC2(C(F)(F)F)CCN(CC2)c2cc(NS(=O)(=O)CCO)ccc2C(=O)Nc2nccc1n2` [EX87] it was 1000 to 10000 nM.

As to `CCS(=O)(=O)Nc1ccc2c(c1)N1CCC(C(F)(F)F)(CC1)COC[C@@H](C)CNc1cccc(n1)NC2=O` [EX88-A], the IC50 lay in the range of 10 to 100 nM.

With `CCS(=O)(=O)Nc1ccc2c(c1)N1CCC(C(F)(F)F)(CC1)COC[C@H](C)CNc1cccc(n1)NC2=O` [EX88-B], the IC50 is < 10 nM. In the case of `CN1CCCCCC2(C(F)(F)F)CCN(CC2)c2cc(NS(=O)(=O)CCO)ncc2C(=O)Nc2cccc1n2` [EX89] it was 10 to 100 nM. The result for `CN1CCCCCC2(C(F)(F)F)CCN(CC2)c2cc(NS(=O)(=O)CCO)ccc2C(=O)Nc2ccnc1n2` [EX90] reads 10 to 100 nM; that for `CN1CCC/C=C/C2(C(F)(F)F)CCN(CC2)c2cc(NS(=O)(=O)CCO)ccc2C(=O)Nc2ccnc1n2` [EX91], 10 to 100 nM. The result for `O=C1Nc2cccc(n2)N2CCO[C@H](COCC3(C(F)(F)F)CCN(CC3)c3cc(NS(=O)(=O)CCO)ncc31)C2` [EX92-A] reads 10 to 100 nM.

As for `O=C1Nc2ccnc(n2)N2CCO[C@H](COCC3(C(F)(F)F)CCN(CC3)c3cc(NS(=O)(=O)CCO)ccc31)C2` [EX93-A], the half-maximal inhibitory concentration (IC50) was < 10 nM. The result for `O=C1Nc2ccnc(n2)N2CCO[C@@H](COCC3(C(F)(F)F)CCN(CC3)c3cc(NS(=O)(=O)CCO)ccc31)C2` [EX93-B] reads 10 to 100 nM. The result for `CN1CCCOCC2(C(F)(F)F)CCN(CC2)c2cc(NS(=O)(=O)CCO)ccc2C(=O)Nc2cc(Cl)nc1n2` [EX94] reads 100 to 1000 nM; that for `CN1CCCOCC2(C(F)F)CCN(CC2)c2cc(NS(=O)(=O)CCO)ccc2C(=O)Nc2ccnc1n2` [EX95], 10 to 100 nM; that for `Cc1cc2nc(n1)N1CCO[C@H](COCC3(C(F)(F)F)CCN(CC3)c3cc(NS(=O)(=O)CCO)ccc3C(=O)N2)C1` [EX96-A], < 10 nM. `CCS(=O)(=O)Nc1cc2c(cn1)C(=O)Nc1cccc(n1)N(C)CCCOCC1(C(F)(F)F)CCN2CC1` [EX97] registered an IC50 of 10 to 100 nM. In the case of `CCS(=O)(=O)Nc1cc2c(cn1)C(=O)Nc1cccc(n1)N(C)CCCCCC1(C(F)(F)F)CCN2CC1` [EX98] it was 100 to 1000 nM; in that of `CN1CCCOCC2(C(F)(F)F)CCN(CC2)c2cc(NS(=O)(=O)CCO)ccc2C(=O)Nc2cc(Cl)cc1n2` [EX99], 100 to 1000 nM. The result for `C[C@@H]1CCCC2(C(F)(F)F)CCN(CC2)c2cc(NS(=O)(=O)CCO)ncc2C(=O)Nc2cccc(n2)NC1` [EX100-A] reads 10 to 100 nM; that for `CCS(=O)(=O)Nc1cc2c(cn1)C(=O)Nc1cccc(n1)NC[C@H](C)CCCC1(C(F)(F)F)CCN2CC1` [EX101-A], 10 to 100 nM. As to `CCS(=O)(=O)Nc1cc2c(cn1)C(=O)Nc1cccc(n1)NC[C@@H](C)CCCC1(C(F)(F)F)CCN2CC1` [EX101-B], the IC50 is < 10 nM. As for `C[C@H]1CCCC2(C(F)F)CCN(CC2)c2cc(NS(=O)(=O)CCO)ccc2C(=O)Nc2cccc(n2)NC1` [EX102-B], the IC50 is < 10 nM. In the case of `O=C1Nc2cccc(n2)NCCCCCC2(C(F)(F)F)CCN(CC2)c2cc(NS(=O)(=O)CCO)ccc21` [EX103] it was < 10 nM; in that of `CN1CCCCCC2(C(F)(F)F)CCN(CC2)c2cc(NS(=O)(=O)CCO)c(F)cc2C(=O)Nc2cccc1n2` [EX104], 10 to 100 nM; in that of `C[C@@H]1CCCC2(C(F)(F)F)CCN(CC2)c2cc(NS(=O)(=O)CCO)c(F)cc2C(=O)Nc2cccc(n2)NC1` [EX105-A], < 10 nM. The result for `C[C@@H]1CCOCC2(C(F)(F)F)CCN(CC2)c2cc(NS(=O)(=O)CCO)ccc2C(=O)Nc2cccc(n2)N1` [EX107-A] reads 100 to 1000 nM. In the case of `C[C@H]1CCOCC2(C(F)(F)F)CCN(CC2)c2cc(NS(=O)(=O)CCO)ccc2C(=O)Nc2cccc(n2)N1` [EX107-B] it was 10 to 100 nM; in that of `CN1CC(F)(F)COCC2(C(F)(F)F)CCN(CC2)c2cc(NS(=O)(=O)CCO)ccc2C(=O)Nc2cccc1n2` [EX108], 100 to 1000 nM; in that of `O=C1Nc2cccc(n2)NCC(F)(F)COCC2(C(F)(F)F)CCN(CC2)c2cc(NS(=O)(=O)CCO)ccc21` [EX109], 10 to 100 nM. `CN1CCCOCC2(C(F)F)CCN(CC2)c2cc(NS(=O)(=O)CCO)ccc2C(=O)Nc2cccc1n2` [EX110] came in with an IC50 of 10 to 100 nM.

(Values after patent US20250340569A1, “INHIBITORS OF KIF18A AND USES THEREOF” (Insilico Medicine IP Limited, priority 2023, published 2025).)
